{"source": "patent US12195427B2", "about": "“MASP-2 inhibitors and methods of use” (priority 2018, dated 2025)", "target": "MASP-2 CCP2-SP (Homo sapiens (Human), UniProt O00187)", "sequence (O00187 445-686)": "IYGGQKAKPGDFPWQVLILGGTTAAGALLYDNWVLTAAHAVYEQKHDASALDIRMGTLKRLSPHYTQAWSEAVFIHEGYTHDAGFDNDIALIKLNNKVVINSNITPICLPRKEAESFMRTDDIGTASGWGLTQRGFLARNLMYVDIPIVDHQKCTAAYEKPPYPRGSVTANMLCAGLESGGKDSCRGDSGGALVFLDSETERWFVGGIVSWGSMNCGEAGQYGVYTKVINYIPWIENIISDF", "sequence (O00187 364-432 partner)": "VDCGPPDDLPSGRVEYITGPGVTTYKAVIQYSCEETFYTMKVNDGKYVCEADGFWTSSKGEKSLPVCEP", "experiment": "MASP-2 co-crystallization, X-ray crystallography and structure analysis (H-bonds, van der Waals contacts);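 for Ligand-pharmacophore element distance, pharmacophore element C2: distance from averaged pharmacophore element to bound ligand; missing value means element absent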;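 for Ligand-pharmacophore element distance, pharmacophore element C3: distance from averaged pharmacophore element to bound ligand; missing value means element absent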;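 for Ligand-pharmacophore element distance, pharmacophore element C4: distance from averaged pharmacophore element to bound ligand; missing value means element absent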;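 for Ligand-pharmacophore element distance, pharmacophore element C5: distance from averaged pharmacophore element to bound ligand; missing value means element absent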", "design": "van der Waals contact distance, MASP-2 HIS 483 atom CD2 / van der Waals contact distance, MASP-2 HIS 483 atom NE2 / van der Waals contact distance, SER 654 C to compound atom / van der Waals contact distance, SER 654 O to compound atom / van der Waals contact distance, TRP 655 C to compound atom / van der Waals contact distance, MASP-2 GLY 528 atom CA / van der Waals contact distance TRP 655 atom CZ3 / van der Waals contact distance TRP 655 atom N / van der Waals contact distance TRP 655 atom CE3 / van der Waals contact distance GLY 656 atom C / van der Waals contact distance GLY 656 atom CA / van der Waals contact distance GLY 656 atom O / van der Waals contact distance, MASP-2 TYR 607 atom CD1 / van der Waals contact distance, MASP-2 PRO 606 atom O / d(C3,CA1) / d(CA1,N1)2 / d(H4,O1) / d(H4,O2) / d(O1,O2) / d(CA1,O2) / d(CA6,O1) / d(CA6,O2) / d(CA1,C5) / d(O2,H3) / d(N2,C2) / d(CA5,N2) / d(N2,C4) / d(N2,C6) / d(N2,CA3) / d(N2,O3) / d(O4,H2): unit not given beside the values", "excerpt": "This example illustrates the preparation of recombinant MASP-2 protein, based on UniProt O00187, human mannan-binding lectin serine protease 2. Expression constructs for human MASP-2 CCP2-SP and CCP2-SP-6HIS were generated for recombinant expression in E. coli cells.\nTypically, crystallization hits were obtained by screening against […] 96-well crystallization reagent kits (GRAS6, GRAS2, Hampton Research; MORPHEUS, Molecular Dimensions; Wizard 1&2 Cryo, Rigaku Reagents) and crystal growth was inspected by optical microscopy. Crystals were used directly or further optimized for X-ray diffraction. Crystals were captured with cryogenic loops and dipped into liquid nitrogen directly or cryoprotected with a 20% glycerol in crystallization formulation before flash-cooling in liquid nitrogen.\nThereafter crystals are transferred once or twice for soaking within the crystallization solution containing the MASP-2 inhibitor.\nCrystals were diffracted with synchrotron X-rays of […] and X-ray diffraction datasets were collected at beamlines SSRL BL9-2, BL14-1, BL12-2 as well as ALS sector 5 using Dectris Pilatus and Eiger detectors. Structures were determined by molecular replacement using portions of the structure 1Q3X as search models and partially refined with Buster 2.10.2 or Refmac 5.8. […] When multiple ligand poses were observed, for instance arising from multiple molecules in the asymmetric unit or refined dual poses within the same molecule, only one pose was selected and analyzed.\nLigPlot+ calls these ‘nonbonded contacts’ or ‘hydrophobic contacts’. Despite the name, there are atom pairings that include possible H-bonds. Thus, in some instances, the Table A2 also contains H-bond interactions.", "key": {"[1]": {"conditions": "Table A5-1 pharmacophore: distance between elements, S2/S1 region"}, "[2]": {"conditions": "Table A5-2 pharmacophore distance, S3/S4 region"}, "[3]": {"conditions": "Table A7-1, between pharmacophore elements of the bound compound"}}, "data": [{"compound": "C[C@H](NC(=O)[C@H]1C[C@@H](c2ccccc2)CCN1)C(=O)NCc1cc(Cl)ccc1O.Cl", "note": "[1078_15]", "values": [{"measurement": "Ligand-pharmacophore element distance, pharmacophore element C2", "setting": "Table A4-1, element C2", "value": 0.81}, {"measurement": "Ligand-pharmacophore element distance, pharmacophore element C3", "setting": "Table A4-1, element C3", "value": 0}, {"measurement": "Ligand-pharmacophore element distance, pharmacophore element C4", "setting": "Table A4-1, element C4", "value": 0}, {"measurement": "Ligand-pharmacophore element distance, pharmacophore element C5", "setting": "Table A4-1, element C5", "value": 0.43}, {"measurement": "Ligand-pharmacophore element distance, pharmacophore element C6", "setting": "Table A4-1, element C6", "value": 0}, {"measurement": "Ligand-pharmacophore element distance, pharmacophore element C7", "setting": "Table A4-1, element C7", "value": 0}, {"measurement": "Ligand-pharmacophore element distance, pharmacophore element CA1", "setting": "Table A4-1, element CA1", "value": 1.56}, {"measurement": "Ligand-pharmacophore element distance, pharmacophore element CA2", "setting": "Table A4-1, element CA2", "value": 0.65}, {"measurement": "Ligand-pharmacophore element distance, pharmacophore element CA3", "setting": "Table A4-1, element CA3", "value": 0}, {"measurement": "Ligand-pharmacophore element distance, pharmacophore element CA4", "setting": "Table A4-1, element CA4", "value": 0}, {"measurement": "Ligand-pharmacophore element distance, pharmacophore element CA5", "setting": "Table A4-1, element CA5", "value": 0}, {"measurement": "Ligand-pharmacophore element distance, pharmacophore element CA6", "setting": "Table A4-1, element CA6", "value": 0}, {"measurement": "d(CA1,C5)", "setting": "[1]", "value": 3.13}, {"measurement": "d(CA1,O1)", "setting": "[1]", "value": 4.59}, {"measurement": "d(CA1,O2)", "setting": "[1]", "value": 4.59}, {"measurement": "d(CA1,O4)", "setting": "[1]", "value": 2.74}, {"measurement": "d(H4,O1)", "setting": "[1]", "value": 2.66}, {"measurement": "d(H4,O2)", "setting": "[1]", "value": 2.49}, {"measurement": "d(O1,O2)", "setting": "[1]", "value": 2.93}, {"measurement": "d(O4,H2)", "setting": "[1]", "value": 0.97}, {"measurement": "d(N2,C2)", "setting": "[2]", "value": 1.45}, {"measurement": "d(N2,CA2)", "setting": "[2]", "value": 5.66}, {"measurement": "d(O2,H3)", "setting": "[2]", "value": 2.97}, {"measurement": "d(O2,N2)", "setting": "[2]", "value": 2.84}, {"measurement": "a(C5, CA1, O1)", "setting": "Table A6-1 pharmacophore angle", "value": 160.41}, {"measurement": "a(CA1, O1, O2)", "setting": "Table A6-1 pharmacophore angle", "value": 108.62}, {"measurement": "a(CA1, O4, H2)", "setting": "Table A6-1 pharmacophore angle", "value": 127.31}, {"measurement": "a(O1, CA1, O4)", "setting": "Table A6-1 pharmacophore angle", "value": 65.89}, {"measurement": "a(O1, O2, H4)", "setting": "Table A6-1 pharmacophore angle", "value": 110.90}, {"measurement": "a(O1, O2, H3)", "setting": "Table A6-2 pharmacophore angle", "value": 143.22}, {"measurement": "a(O1, O2, N2)", "setting": "Table A6-2 pharmacophore angle", "value": 147.42}, {"measurement": "a(O2, N2, C2)", "setting": "Table A6-2 pharmacophore angle", "value": 124.17}, {"measurement": "a(O2, N2, CA2)", "setting": "Table A6-2 pharmacophore angle", "value": 155.02}, {"measurement": "Pharmacophore torsion angle a(C5, CA1, O1, H4)", "setting": "[3]", "value": 19.98}, {"measurement": "Pharmacophore torsion angle a(H4, O1, O2, H3)", "setting": "[3]", "value": "−124.63"}, {"measurement": "Pharmacophore torsion angle a(H4, O1, O2, N2)", "setting": "[3]", "value": "−117.88"}, {"measurement": "Pharmacophore torsion angle a(O1, H4, O2, CA1)", "setting": "[3]", "value": "−64.96"}, {"measurement": "Pharmacophore torsion angle a(O1, O2, N2, C2)", "setting": "[3]", "value": 139.14}, {"measurement": "Pharmacophore torsion angle a(O1, O2, N2, C2)2", "setting": "[3]", "value": 139.34}, {"measurement": "Pharmacophore torsion angle a(O1, O2, N2, CA2)", "setting": "Table A7-2, between pharmacophore elements of the bound compound", "value": 141.63}]}, {"compound": "C[C@H](NC(=O)[C@@H](CCc1ccccc1)NCCCc1ccc(O)cc1)C(=O)NCc1ccc(C(=N)N)cc1", "note": "[compound 1145]", "values": [{"measurement": "H-bond distance to MASP-2 GLY 656 atom N", "setting": "Table A1 (H-Bonds), GLY 656 N", "value": 3.09}, {"measurement": "H-bond distance to MASP-2 GLY 656 atom O", "setting": "Table A1 (H-Bonds), GLY 656 O", "value": 2.58}, {"measurement": "H-bond distance to MASP-2 SER 628 atom O", "setting": "Table A1 (H-Bonds), SER 628 O", "value": 2.84}, {"measurement": "H-bond distance to MASP-2 SER 654 atom O", "setting": "Table A1 (H-Bonds), SER 654 O", "value": 2.84}, {"measurement": "H-bond distance to MASP-2 SER 657 atom O", "setting": "Table A1 (H-Bonds), SER 657 O", "value": 2.81}, {"measurement": "van der Waals contact distance, MASP-2 HIS 483 atom CD2", "setting": "Table A2-1", "value": 3.75}, {"measurement": "van der Waals contact distance, MASP-2 PHE 529 atom CD1", "setting": "Table A2-3", "value": 3.54}, {"measurement": "van der Waals contact distance, MASP-2 TYR 607 atom CD2", "setting": "Table A2-4", "value": 3.89}, {"measurement": "van der Waals contact distance, VAL 653 CG1 to compound atom", "setting": "Table A2-11", "value": 3.9}, {"measurement": "van der Waals contact distance TRP 655 atom CE3", "setting": "Table A2-13, MASP-2 TRP 655 CE3, compound atom in line below", "value": 3.49}, {"measurement": "van der Waals contact distance TRP 655 atom N", "setting": "Table A2-13, MASP-2 TRP 655 N", "value": 3.79}, {"measurement": "van der Waals contact distance, MASP-2 amino acid atom to compound atom", "setting": "Table A2 section before Table A2-8", "value": 3.85}]}]}
